# According to US20090042823A1 (priority 2007, published 2009):
# System: PR8 virus
# Design: species or system influenza A virus
# Details: in vivo
smiles,measurement,value
"CCOC(=O)C1=C[C@@H](OC(CC)CC)[C@H](NC(C)=O)[C@@H](N)C1 [oseltamivir drug, oseltamivir]",influenza viral titer relative to GFP control siRNA,reduced influenza viral titers
